Earlier results, collected in US20010034320A1, “NK1-receptor antagonists for treating restless legs syndrome” (priority 2000, published 2001).

Test system: Restless Legs Syndrome (RLS)
Details: for effect on RLS complaint in therapy trials: RLS patients, therapy trials described in the background
[1] = objective polysomnographic measuring parameters, daily doses 0.1-0.9 mg

SMILES | effect on RLS complaint in therapy trials | quality of sleep, frequency of waking or periodic leg movements in sleep (PLMS) [1] | sleep latency [1] | perceived symptoms such as paraesthesia, compulsive movement and tiredness during the day (patient-reported, daily doses 0.1-0.9 mg, 4 open trials, 2 double-blind placebo-controlled trials and a single case study)
NC(=O)N1c2ccccc2C=Cc2ccccc21 [Carbamazepine] | only partial relief from the complaint |  |  | 
N[C@@H](Cc1ccc(O)c(O)c1)C(=O)O [L-dopa, levodopa] | significant alleviation of the complaint |  |  | 
Clc1cccc(Cl)c1NC1=NCCN1 [clonidine, 2-(2,6-dichloroanilino)-4,5-dihydroimidazole] |  | not affected | shortened | (statistically significant) reduction
